In patent publication US20020028938A1, “Prostaglandin endoperoxide H synthase biosynthesis inhibitors” (priority 1997, published 2002):

How the values were obtained:
[1] = biological target: T1, Human Whole Platelet Cyclooxygenase-1 (Homo sapiens, UniProt P23219); experiment: Human Whole Platelet Cyclooxygenase-1 assay (HWPX); type: cell-based; settings: for IC50: read-out: HWPX IC50 (parenthetical value)
T1 construct: from tissue; host or cells: human blood: isolated platelets (A4) or heparinised whole blood (A9)
Method in brief: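 Thromboxane production was measured with a commercial kit after stimulation of washed human platelets (ACD-anticoagulated volunteer blood) by 8.8 μM final A23187 for 10 min. Test compounds were added 10 min before stimulus; cold 6 mM EDTA terminated the reaction.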

[2] = biological target: T2, human amnionic whole cell cyclooxygenase-2 (WISH cells) (Homo sapiens, UniProt P35354); experiment: IL-1β induced PGE2 production in WISH cells; type: cell-based; settings: for IC50: read-out: Wish IC50 (parenthetical value)
T2 construct: endogenous in cells; host or cells: human amnionic WISH cells, induced with IL-1beta
T2 sequence (P35354 18-604): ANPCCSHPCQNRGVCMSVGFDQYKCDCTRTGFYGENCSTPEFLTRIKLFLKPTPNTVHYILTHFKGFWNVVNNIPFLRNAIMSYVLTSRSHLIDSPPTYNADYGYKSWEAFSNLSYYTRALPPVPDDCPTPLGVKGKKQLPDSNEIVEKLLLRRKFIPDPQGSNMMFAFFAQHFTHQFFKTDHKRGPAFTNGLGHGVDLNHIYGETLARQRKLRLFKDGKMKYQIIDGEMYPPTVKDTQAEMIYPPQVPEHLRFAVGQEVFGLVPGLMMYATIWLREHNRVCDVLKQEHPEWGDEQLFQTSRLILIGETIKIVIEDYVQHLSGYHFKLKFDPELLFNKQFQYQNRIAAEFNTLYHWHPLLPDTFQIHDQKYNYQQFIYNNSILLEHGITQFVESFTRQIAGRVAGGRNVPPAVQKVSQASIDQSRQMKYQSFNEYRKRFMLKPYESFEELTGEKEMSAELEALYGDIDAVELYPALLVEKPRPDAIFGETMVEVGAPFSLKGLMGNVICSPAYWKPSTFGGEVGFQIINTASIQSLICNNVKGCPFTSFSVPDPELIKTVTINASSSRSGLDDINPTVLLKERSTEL
Method in brief: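 PGE2 was quantified by enzyme immunoassay (optical density read) against standards made up in the matching medium. WISH cells at 80% confluence, washed and placed in serum-free Neuman-Tytell medium, received 5 ng/ml IL-1β plus test compound or DMSO vehicle (0.01% v/v).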

[3] = system: air pouch prostaglandin biosynthesis (Cox-2); experiment: Carrageenan induced air pouch prostaglandin biosynthesis model (CAP); type: in vivo, rat; settings: for CAP % Inhib. @ 3 mpk / inhibition in vivo at 3 mg/kg: rat, 3 mpk; for inhibition in vivo at 3 mg/kg: 4 h, read-out: CAP % Inhib. @ 3 mpk; for ED50: Rattus norvegicus
Experimental: To compare the mean responses of the treatment groups, analysis of variance was applied. Percent inhibition values were determined by comparing the individual treatment mean values to the mean of the control group. Linear regression was used to estimate IC50's/ED50's in appropriate assays.
Carrageenan induced air pouch prostaglandin biosynthesis model (CAP) Air pouches are formed in the backs of male Sprague Dawley rats by injecting 20 mL of sterile air on day 0. Three days later the pouch was reinflated with an additional 10 mL of sterile air. On day 7, 1 mL of saline containing 0.2 % lambda carrageenan (Sigma Chemical Co.) is injected into the pouch to induce the inflammatory reaction that is characterized by the release of prostaglandins. Test compounds are dosed at 0.1 to 10 mg/kg 30 minutes prior to carrageenan. Four hours after the carrageenan injection the pouch is lavaged and levels of prostaglandins are determined by enzyme immuno-assay using commercially available kits. […] Values for Cox-2 inhibition that are parenthetical indicate ED50 values.

[4] = biological target: T3, recombinant human Cox-1 (r-hu Cox1) (Homo sapiens, UniProt P23219); experiment: Recombinant human PGHS-1 enzyme assay (RHUCX1); type: biochemical
T3 construct: made in house; host or cells: baculovirus/Sf9 insect cells (microsomes)
Method in brief: (§1)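 PGE2 production measured by enzyme immunoassay with standards in the same milieu. Inhibition was computed versus control group mean and IC50 estimated by linear regression.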

[5] = biological target: T4, recombinant human Cox-2 (r-hu Cox-2) (Homo sapiens, UniProt P35354); experiment: Recombinant human PGHS-2 enzyme assay (RHUCX2); type: biochemical; settings: for IC50: read-out: RHUCX2 IC50 (parenthetical value)
T4 construct: made in house; host or cells: baculovirus/Sf9 insect cells (microsomes)
T4 sequence (P35354 18-604): T2 sequence (P35354 18-604)
Method in brief: as §1

[6] = read-out: RHUCX1 % Inh. at Dose
[7] = 100 μM, read-out: RHUCX1 % Inh. at Dose
[8] = read-out: RHUCX2 % Inh. at Dose
[9] = 1 μM, read-out: RHUCX2 % Inh. at Dose

T3 sequence (P23219 24-599): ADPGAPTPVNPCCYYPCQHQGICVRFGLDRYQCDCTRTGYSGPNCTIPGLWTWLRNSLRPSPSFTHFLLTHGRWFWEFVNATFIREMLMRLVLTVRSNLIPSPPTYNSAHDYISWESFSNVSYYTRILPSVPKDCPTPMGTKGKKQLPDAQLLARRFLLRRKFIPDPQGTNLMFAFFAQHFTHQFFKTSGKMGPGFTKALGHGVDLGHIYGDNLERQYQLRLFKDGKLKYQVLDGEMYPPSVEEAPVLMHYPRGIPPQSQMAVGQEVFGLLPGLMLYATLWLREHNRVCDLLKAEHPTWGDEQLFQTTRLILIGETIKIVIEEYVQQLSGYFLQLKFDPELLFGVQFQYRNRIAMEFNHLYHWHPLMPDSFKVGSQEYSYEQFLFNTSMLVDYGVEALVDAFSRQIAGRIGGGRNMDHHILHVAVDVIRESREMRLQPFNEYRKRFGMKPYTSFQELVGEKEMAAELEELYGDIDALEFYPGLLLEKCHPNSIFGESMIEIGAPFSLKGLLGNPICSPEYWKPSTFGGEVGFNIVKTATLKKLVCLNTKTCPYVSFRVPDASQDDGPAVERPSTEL
T1 sequence (P23219 24-599): as above

| Compound | IC50 [2] | IC50 [1] | IC50 [5] | inhibition in vivo at 3 mg/kg [3] | melting point | inhibition at 100 µM [4, 7] | other results |
| --- | --- | --- | --- | --- | --- | --- | --- |
| 2-(3-Methyl-2-butenyl)-4-(4-fluorophenyl)-5-[3-fluoro-4-(aminosulfonyl)phenyl]-3(2H)-pyridazinone [Example 123] | 1 nM |  |  |  |  |  | HWPX % Inhib. at Dose (μM) ([1]; 0.1 μM): 29 @ .1%; HWPX % Inhib. at Dose (μM) ([1]; 1 μM): 90 @ 1%; CAP % Inhib. @ 3 mpk [3]: 23% |
| 2-(4-Fluorophenyl)-4-(4-fluorophenoxy)-5-[4-(aminosulfonyl)phenyl]-3(2H)-pyridazinone [Example 385] | 23 nM | 2180 nM |  |  |  |  | CAP % Inhib. @ 3 mpk [3]: 65% |
| CS(=O)(=O)c1ccc(-c2cnn(-c3ccc(F)c(F)c3)c(=O)c2-c2ccc(Cl)cc2)cc1 [Example 106, 2-(3,4-Difluorophenyl)-4-(4-chlorophenyl)-5-[4-(methylsulfonyl)phenyl]-3(2H)-pyridazinone] | 30 nM | 17500 nM | 135 nM | 47% | 187 to 188 °C |  | inhibition at 200 µM ([4]; 200 μM, read-out: RHUCX1 % Inh. at Dose): 19% |
| NS(=O)(=O)c1ccc(-c2cnn(CC=C(F)F)c(=O)c2-c2ccc(F)cc2)cc1 [Example 143, 2-(3,3-Difluoro-2-propenyl)-4-(4-fluorophenyl)-5-[4-(aminosulfonyl)phenyl]-3(2H)-pyridazinone] | 7 nM |  | 76 nM | 59% | 191 to 194 °C | 62% | inhibition at 10 µM [4, 6]: 43% |
| NS(=O)(=O)c1ccc(-c2cnn(Cc3ccc(F)c(F)c3F)c(=O)c2-c2ccc(F)cc2)cc1 [Example 153, 2-(2,3,4-Trifluorobenzyl)-4-(4-fluorophenyl)-5-[4-(aminosulfonyl)phenyl]-3(2H)-pyridazinone] | 46 nM | 2950 nM | 62 nM | 51% | 218 to 220 °C | 54% | inhibition at 10 µM [4, 6]: 35% |
| Cc1cc(-c2c(-c3ccc(S(C)(=O)=O)cc3)cnn(-c3ccc(F)cc3)c2=O)ccc1F [Example 245, 2-(4-Fluorophenyl)-4-(4-fluoro-3-methylphenyl)-5-[4-(methylsulfonyl)phenyl]-3(2H)-pyridazinone] | 46 nM |  | 1380 nM | 47% | 245 to 247 °C | 9% |  |
| CS(=O)(=O)c1ccc(-c2cnn(-c3ccc(F)c(Cl)c3)c(=O)c2Cc2ccccc2)cc1 [Example 248, 2-(3-Chloro-4-fluorophenyl)-4-benzyl-5-[4-(methylsulfonyl)phenyl]-3(2H)-pyridazinone] | 5 nM |  | 80 nM | 49% |  | 13% | inhibition at 10 µM ([1]; 10 μM, read-out: HWPX % Inhib. at Dose): 17%; inhibition at 30 µM ([1]; 30 μM, read-out: HWPX % Inhib. at Dose): 82% |
| CC(C)CCc1c(-c2ccc(S(C)(=O)=O)cc2)cnn(-c2ccc(F)c(F)c2)c1=O [Example 256] | 28 nM | 4700 nM | 134 nM | 47% | 55 to 58 °C | 0% |  |
| CC(C)CCOc1c(-c2ccc(S(C)(=O)=O)cc2)cnn(C(C)(C)C)c1=O [Example 330, 2-(tert-Butyl)-4-(3-methylbutoxy)-5-[4-(methylsulfonyl)phenyl]-3(2H)-pyridazinone] | 5 nM | 16700 nM |  | 4.5% |  | 15% | inhibition at 0.01 µM [5, 8]: 5%; inhibition at 0.03 µM ([5]; 0.03 μM, read-out: RHUCX2 % Inh. at Dose): 72%; inhibition at 1 µM [5, 9]: 85% |
| CC(C)COc1c(-c2ccc(S(C)(=O)=O)cc2)cnn(-c2cccc(Cl)c2)c1=O [Example 335, 2-(3-Chlorophenyl)-4-(2-methylpropoxy)-5-[4-(methylsulfonyl)phenyl]-3(2H)-pyridazinone] | 23 nM |  | 1 nM | 45% | 166 to 169 °C | 5% |  |
| CC(C)(C)COc1c(-c2ccc(S(C)(=O)=O)cc2)cnn(-c2ccc(F)c(F)c2)c1=O [Example 349] | 41 nM |  | 86 nM | 63% | 126 to 128 °C | 0% | inhibition at 100 µM ([1]; 100 μM, read-out: HWPX % Inhib. at Dose): 34% |
| CC(C)=CCCOc1c(-c2ccc(S(C)(=O)=O)cc2)cnn(-c2ccc(F)c(F)c2)c1=O [Example 352, 2-(3,4-Difluorophenyl)-4-(4-methyl-3-penten-1-yloxy)-5-[4-(methylsulfonyl)phenyl]-5-3(2H)-pyridazinone] |  | 5500 nM | 154 nM | 89% | 88 to 90 °C | 0% | ED50 [3]: 5 mg/kg |
| CC(C)CCc1c(-c2ccc(S(C)(=O)=O)cc2)cnn(-c2cccc(Cl)c2)c1=O [Example 366, 2-(3-Chloropenyl)-4-(3-methylbutyl)-5-[4-(methysulfonyl)phenyl]-3(2H)-pydazinone] | 2 nM | 1620 nM | 30 nM | 63% | 60 to 65 °C | 0% | ED50 [3]: 1.5 mg/kg |
| CC(C)CCOc1c(-c2ccc(S(N)(=O)=O)cc2)cnn(-c2cccc(Cl)c2)c1=O [Example 394, 2-(3-Chlorophenyl)-4-(3-methylbutoxy)-5-[4-(aminosulfonyl)phenyl]-3(2H)-pyridazinone] | 19 nM |  |  | 70% | 137 to 139 °C | 86% | inhibition at 10 µM [4, 6]: 38%; inhibition at 0.01 µM [5, 8]: 20%; inhibition at 0.1 µM ([5]; 0.1 μM, read-out: RHUCX2 % Inh. at Dose): 64%; inhibition at 1 µM [5, 9]: 94% |
| CC(C)(O)COc1c(-c2ccc(S(C)(=O)=O)cc2)cnn(-c2ccc(F)c(F)c2)c1=O [Example 452, 2-(3,4-Difluorophenyl)-4-(2-hydroxy-2-methyl-1-propoxy)-5-[4-(methylsulfonyl)phenyl]-3(2H)-pyrridazinone] |  |  |  |  |  |  | RHUCX1 % Inh. at Dose (μM) ([4]; 100 μM): 14 @ 100%; RHUCX2 % Inh. at Dose (μM) ([5]; 1 μM): 15 @ 1%; Wish % Inhib. at Dose (μM) ([2]; 0.1 μM): 1 @ 0.1%; Wish % Inhib. at Dose (μM) ([2]; 1 μM): 56 @ 1%; CAP % Inhib. @ 3 mpk [3]: 71% |
